Data reported in US7786140B2, “Piperidine derivative having NMDA receptor antagonistic activity” (Shionogi & Co., Ltd., priority 2003, dated 2010).
pIC50: −log10 of the molar value. Like-named read-outs stand apart in the source and are kept apart here.

Key:
[1] = target: PCP receptor; experiment: Experiment of binding to PCP receptor: competitive binding with [3H] MK-801, rat cerebral cortex membrane preparation; settings: for pIC50: [3H] MK-801 2 nM, rat cerebral cortex membranes
Protocol: Experiment of Binding to PCP Receptor
MK-801 is reported to bind to PCP receptor and cause psychosis.
(§1) Male Slc: Wistar rats were used and after beheading of the rats, the brains were picked out and the cerebral cortex was fractionated. The cerebral cortex was homogenized with ice-cooled 5 mM Tris-HCl buffer (pH 7.8) in an amount 20 times as much and centrifuged at 4° C. and 27,500×g for 10 minutes. The obtained precipitate was suspended with the same buffer solution and again centrifuged. These steps were repeated three times and the obtained precipitate was suspended with the buffer solution and stored at −80° C. Immediately before the experiment, the stored suspension was thawed at room temperature and centrifuged at 4° C. and 27,500×g for 10 minutes and the obtained precipitate was suspended with the buffer solution. Further the resulting solution was diluted 2.5 times with the buffer solution and the obtained solution was used as a membrane preparation for the experiment.
For the binding experiment, 10 μL of test compounds with different concentrations and 10 μL of marked ligand [^3H] MK-801 were added to 480 μL of the above-mentioned membrane preparation sample and incubated at 25° C. for 60 minutes. The final concentration of [^3H] MK-801 was adjusted to be 2 nM. DMSO, which is a solvent, was used for measurement of the total binding quantity and 10 μM of (+)MK-801 was used for measurement of the non-specific binding quantity. After the incubation, the bonded bodies and the free bodies were separated by Whatman GF/C filter paper (manufactured by Whatman Inc.) and the filter paper was washed four times with 2.5 mL of the ice-cooled buffer solution. The filter paper was immersed in a liquid scintillation in a vial (Clear-Sol I, manufactured by Nacalai Tesque Co., Ltd.) and the radiation dose (dpm) was measured by a liquid scintillation counter. The binding inhibition ratio (%) was calculated from the measured values according to the following equation and the dose for inhibiting 50% binding (IC50) was calculated.
(§2) Binding inhibition ratio (%)=100−[(binding quantity in the presence of the test compound−non-specific binding quantity)/(total binding quantity−non-specific binding quantity)]×100

[2] = target: T1, NR1/NR2B receptor (Rattus norvegicus, UniProt P35439+Q00960); experiment: Experiment of binding to NMDA receptor: competitive binding with [3H]-Ifenprodil, rat cerebral cortex membrane preparation; settings: [3H]-Ifenprodil 5 nM, GBR-12909 3 μM, rat cerebral cortex membranes
T1 construct: the obtained solution was used as a membrane preparation for the experiment; from tissue; host or cells: rat cerebral cortex membrane preparation
T1 sequence (Q00960 27-1482, other chains not shown): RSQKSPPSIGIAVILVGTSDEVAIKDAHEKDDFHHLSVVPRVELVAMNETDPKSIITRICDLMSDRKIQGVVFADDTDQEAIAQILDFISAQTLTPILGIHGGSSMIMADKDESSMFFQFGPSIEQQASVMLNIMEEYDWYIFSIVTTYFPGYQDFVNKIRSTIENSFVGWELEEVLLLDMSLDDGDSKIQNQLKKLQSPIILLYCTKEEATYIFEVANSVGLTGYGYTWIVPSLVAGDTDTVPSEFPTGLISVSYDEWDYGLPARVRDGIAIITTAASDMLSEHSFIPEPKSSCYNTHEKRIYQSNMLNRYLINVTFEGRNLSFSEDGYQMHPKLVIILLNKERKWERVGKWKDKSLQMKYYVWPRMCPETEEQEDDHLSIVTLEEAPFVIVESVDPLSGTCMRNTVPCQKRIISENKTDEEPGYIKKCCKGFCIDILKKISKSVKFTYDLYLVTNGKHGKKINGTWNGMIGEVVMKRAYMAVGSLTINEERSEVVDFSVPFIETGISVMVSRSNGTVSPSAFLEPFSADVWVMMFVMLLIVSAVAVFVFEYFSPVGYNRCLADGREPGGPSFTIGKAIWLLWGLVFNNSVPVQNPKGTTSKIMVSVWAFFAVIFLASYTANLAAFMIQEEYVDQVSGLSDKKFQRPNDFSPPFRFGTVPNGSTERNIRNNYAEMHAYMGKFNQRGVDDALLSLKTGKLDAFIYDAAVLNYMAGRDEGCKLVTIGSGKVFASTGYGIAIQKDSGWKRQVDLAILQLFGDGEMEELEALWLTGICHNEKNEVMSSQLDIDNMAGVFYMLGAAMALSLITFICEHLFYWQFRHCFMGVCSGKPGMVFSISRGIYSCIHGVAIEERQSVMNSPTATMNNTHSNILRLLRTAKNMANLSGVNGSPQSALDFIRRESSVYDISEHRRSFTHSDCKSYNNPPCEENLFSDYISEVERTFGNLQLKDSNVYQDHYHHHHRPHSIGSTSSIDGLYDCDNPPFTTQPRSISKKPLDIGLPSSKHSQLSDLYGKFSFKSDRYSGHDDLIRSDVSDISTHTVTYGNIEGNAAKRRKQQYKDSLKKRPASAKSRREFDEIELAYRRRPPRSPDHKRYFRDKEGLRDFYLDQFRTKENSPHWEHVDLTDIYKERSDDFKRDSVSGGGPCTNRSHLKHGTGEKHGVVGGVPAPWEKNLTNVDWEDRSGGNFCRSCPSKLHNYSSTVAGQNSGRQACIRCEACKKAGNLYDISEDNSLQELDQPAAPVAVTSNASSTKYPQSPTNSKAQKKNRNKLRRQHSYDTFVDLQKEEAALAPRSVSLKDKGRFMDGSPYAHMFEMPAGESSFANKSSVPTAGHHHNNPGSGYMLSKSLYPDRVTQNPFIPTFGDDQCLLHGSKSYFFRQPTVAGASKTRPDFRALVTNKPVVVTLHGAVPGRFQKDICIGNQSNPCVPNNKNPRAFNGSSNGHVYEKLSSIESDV
Protocol: Experiment of Binding to NMDA Receptor
Competitive binding assays of the test compounds (10, 18 and 19) were carried out using Ifenprodil, which is an antagonist specific for the NR1/NR2B subtype receptor, as a ligand.
as §1, with “were killed by beheading,” for “were used and after beheading of the rats,”, “ice-cooled 50” for “ice-cooled 5”, “(pH 7.4)” for “(pH 7.8)”, “times of the cerebral cortex” for “times as much”, “diluted 10” for “diluted 2.5”
For the binding experiment, 10 μL of test compounds with different concentrations, 10 μL of [^3H]-Ifenprodil, and 10 μL GBR-12909 were added to 470 μL of the above-mentioned membrane preparation and incubated at icing temperature for 120 minutes. The final concentration of [^3H]-Ifenprodil was adjusted to be 5 nM and the final concentration of GBR-12909 was adjusted to be 3 μM. DMSO, which is a solvent, was used for measurement of the total binding quantity and 100 μM of Ifenprodil was used for measurement of the non-specific binding quantity. In this connection, GBR-12909 was added to block the binding of [^3H]-Ifenprodil to the non-polyamine-sensitive site. After the incubation, the bounded bodies and the free bodies were separated by Whatman GF/C filter paper (Whatman Inc.) and the filter paper was washed four times with 2.5 mL of the ice-cooled buffer solution. The filter paper was immersed in a liquid scintillation (Clear-Sol I, Nacalai Tesque Co., Ltd.) in a vial and the radioactivity (dpm) was measured by a liquid scintillation counter. The binding inhibition ratio (%) was calculated from the measured values according to the following equation and the dose for inhibiting 50% binding (IC50) was calculated.
as §2

[3] = tested on: ICR type male mice; experiment: Analgesic effect in mouse formalin test; assay type: in vivo; settings: for ED50: Mus musculus, injected into the vein 5 minutes before 2% formalin
Protocol: Analgesic Effect in Mouse Formalin Test
The pain behavior attributed to formalin can be classified into two time-dependent phases and mice show pain behaviors, so-called licking and biting. In the first phase, acute pain was caused within 5 minutes immediately after formalin administration, and in the second phase, inflammatory pain was caused for 20 minutes from 10 to 30 minutes after the administration. ICR type male mice (5-week old) were used for the experiment. Formalin (2%) was subcutaneously injected to the right hind paw of the mice. The test compound (18) was dissolved in a solution, DMSO:HCO50:saline=1.5:1:7.5 and injected in difference concentrations into the vein 5 minutes before the formalin administration. The pain behavior time was measured for 30 minutes after formalin administration. The pain behavior time is to be shortened in the case the test compound causes analgesic effect. The measured time is substituted in the following equation to calculate the analgesic ratio (%) and the dose for 50% efficacy (ED50) was calculated. Analgesic ratio (%)=[…]

[4] = target: NR1/NR2B receptor (Mus musculus, UniProt P35438+Q01097); experiment: Electric physiological experiment: NMDA-induced inward current in Xenopus laevis oocytes expressing NMDA receptor subunits; assay type: cell-based
NR1/NR2B receptor (Mus musculus, UniProt P35438+Q01097), sequence (Q01097 27-1482, other chains not shown): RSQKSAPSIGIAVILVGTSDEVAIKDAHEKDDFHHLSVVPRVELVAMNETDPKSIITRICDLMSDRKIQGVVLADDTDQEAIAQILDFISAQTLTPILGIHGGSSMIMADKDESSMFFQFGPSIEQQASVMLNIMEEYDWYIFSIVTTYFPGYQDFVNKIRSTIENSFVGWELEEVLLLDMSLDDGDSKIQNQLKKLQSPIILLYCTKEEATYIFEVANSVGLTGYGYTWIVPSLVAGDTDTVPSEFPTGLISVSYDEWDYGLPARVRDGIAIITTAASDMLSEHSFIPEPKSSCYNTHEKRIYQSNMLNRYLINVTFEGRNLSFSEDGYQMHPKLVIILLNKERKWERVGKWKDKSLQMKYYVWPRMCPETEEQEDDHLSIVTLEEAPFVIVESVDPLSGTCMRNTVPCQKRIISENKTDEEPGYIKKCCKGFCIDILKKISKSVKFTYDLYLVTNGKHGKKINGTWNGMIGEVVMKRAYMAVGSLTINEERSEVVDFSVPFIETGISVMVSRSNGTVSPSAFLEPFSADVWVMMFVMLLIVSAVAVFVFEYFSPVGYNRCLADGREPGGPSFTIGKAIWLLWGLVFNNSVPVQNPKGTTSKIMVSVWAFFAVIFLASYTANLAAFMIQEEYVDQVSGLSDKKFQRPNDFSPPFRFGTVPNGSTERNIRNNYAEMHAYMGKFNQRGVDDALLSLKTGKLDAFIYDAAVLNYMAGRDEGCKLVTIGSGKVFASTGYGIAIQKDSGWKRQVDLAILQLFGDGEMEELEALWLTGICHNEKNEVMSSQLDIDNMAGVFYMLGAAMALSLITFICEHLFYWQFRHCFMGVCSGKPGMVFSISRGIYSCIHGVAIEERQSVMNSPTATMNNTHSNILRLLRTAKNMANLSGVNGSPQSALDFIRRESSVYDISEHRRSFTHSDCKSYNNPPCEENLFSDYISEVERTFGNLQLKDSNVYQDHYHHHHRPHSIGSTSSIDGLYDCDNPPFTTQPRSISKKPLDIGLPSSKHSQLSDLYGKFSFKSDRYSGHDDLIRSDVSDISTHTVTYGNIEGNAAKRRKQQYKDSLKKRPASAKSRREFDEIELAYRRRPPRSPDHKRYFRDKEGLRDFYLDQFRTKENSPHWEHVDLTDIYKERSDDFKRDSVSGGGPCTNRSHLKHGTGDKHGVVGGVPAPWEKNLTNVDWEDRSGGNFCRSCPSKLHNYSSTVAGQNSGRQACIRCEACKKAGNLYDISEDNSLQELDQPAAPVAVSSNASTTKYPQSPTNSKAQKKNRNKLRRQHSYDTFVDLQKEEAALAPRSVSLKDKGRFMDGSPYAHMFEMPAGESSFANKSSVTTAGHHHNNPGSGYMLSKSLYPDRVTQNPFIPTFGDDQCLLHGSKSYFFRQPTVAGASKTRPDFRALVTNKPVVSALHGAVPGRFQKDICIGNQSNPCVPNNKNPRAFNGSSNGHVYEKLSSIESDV
Protocol: (§3) Expression and Electric Physiological Experiment of NMDA Receptor
(§4) Messenger RNA (mRNA) was transcribed with complementary DNA (cDNA) of mouse NMDA receptor subunits and the mRNA was injected in oocytes of Xenopus Laevis. From two days after the injection, the inward current induced by NMDA was recorded by two electrode membrane potential fixation apparatus. The injection amount of the mRNA was 0.6/0.6 ng on the basis of NR1/NR2B per one oocyte to co-expression of the subunits. Solutions of the test compound (18) with different concentrations were added to the oocytes and the inward current induced by NMDA was recorded by two electrode membrane potential fixation apparatus. The extercellular solution was Mg^2+-free ND96 (NaCl 96 mM, KCl 2 mM, CaCl2 1.8 mM, and Hepes 5 mM and pH=7.5) and the potential was retained at −60 mV. The NMDA current was induced by using NMDA 100 μM and glycine 10 μM. The measured values of the recorded inward current induced by NMDA were substituted in the following equation to calculate the electric response % and the dose for inhibiting 50% (IC50) were calculated. The IC50 values for the respective NR1/NR2A, C, and D receptors were calculated. Electric response (%)=(inward current induced by NMDA in the presence of the test compound/inward current induced by NMDA in the absence of the test compound)×100

[5] = target: NR1/NR2C receptor (Mus musculus, UniProt P35438+Q01098); experiment: as above; assay type: cell-based; settings: NMDA 100 μM and glycine 10 μM, -60 mV
NR1/NR2C receptor, sequence (Q01098 20-1239, other chains not shown): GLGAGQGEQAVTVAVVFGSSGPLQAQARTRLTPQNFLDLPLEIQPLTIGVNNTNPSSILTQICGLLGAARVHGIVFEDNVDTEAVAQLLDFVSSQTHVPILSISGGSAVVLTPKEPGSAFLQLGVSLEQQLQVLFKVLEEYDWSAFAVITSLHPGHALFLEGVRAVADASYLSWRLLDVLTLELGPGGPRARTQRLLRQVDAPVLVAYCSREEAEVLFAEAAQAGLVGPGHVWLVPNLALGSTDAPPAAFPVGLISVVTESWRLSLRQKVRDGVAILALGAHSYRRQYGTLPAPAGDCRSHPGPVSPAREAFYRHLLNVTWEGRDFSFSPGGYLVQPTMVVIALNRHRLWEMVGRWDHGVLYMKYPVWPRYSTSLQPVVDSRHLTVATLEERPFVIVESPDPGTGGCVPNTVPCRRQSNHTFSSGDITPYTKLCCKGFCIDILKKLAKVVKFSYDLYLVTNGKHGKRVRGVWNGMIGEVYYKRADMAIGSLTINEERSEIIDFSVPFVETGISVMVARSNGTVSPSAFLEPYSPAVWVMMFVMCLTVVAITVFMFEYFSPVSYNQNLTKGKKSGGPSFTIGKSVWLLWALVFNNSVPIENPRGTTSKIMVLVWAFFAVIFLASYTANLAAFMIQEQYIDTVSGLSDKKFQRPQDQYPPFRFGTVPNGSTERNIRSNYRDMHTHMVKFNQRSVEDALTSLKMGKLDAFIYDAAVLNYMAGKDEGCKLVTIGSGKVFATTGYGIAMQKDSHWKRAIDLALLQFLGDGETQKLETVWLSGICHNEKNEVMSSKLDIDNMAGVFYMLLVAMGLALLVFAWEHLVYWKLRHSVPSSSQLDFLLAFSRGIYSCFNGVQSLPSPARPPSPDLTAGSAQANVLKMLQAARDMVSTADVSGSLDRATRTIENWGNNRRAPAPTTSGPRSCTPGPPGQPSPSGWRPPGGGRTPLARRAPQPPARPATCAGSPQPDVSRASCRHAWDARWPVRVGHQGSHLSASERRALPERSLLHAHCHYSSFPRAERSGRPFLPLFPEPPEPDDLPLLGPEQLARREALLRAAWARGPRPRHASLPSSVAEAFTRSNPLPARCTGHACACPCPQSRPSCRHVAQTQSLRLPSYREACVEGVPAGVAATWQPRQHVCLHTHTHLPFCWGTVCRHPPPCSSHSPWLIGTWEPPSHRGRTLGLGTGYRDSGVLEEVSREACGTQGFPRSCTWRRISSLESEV
Protocol: as §3, §4

[6] = target: NR1/NR2D receptor (Mus musculus, UniProt P35438+Q03391); experiment: as above; assay type: cell-based; settings: NMDA 100 μM and glycine 10 μM, -60 mV
Protocol: as §3, §4

[7] = target: NR1/NR2A receptor (Mus musculus, UniProt P35436+P35438); experiment: as above; assay type: cell-based; settings: NMDA 100 μM and glycine 10 μM, -60 mV
Protocol: as §3, §4

Structure (SMILES)	pIC50 [1]	competition with MK-801 at the PCP receptor (in words) [1]	pIC50 [2]	further results
CC(C(O)c1ccc(O)cc1)N1CCC(O)(c2ccccc2)CC1 (racemic) [CP-101606, reference compound]	4.89			
O=C(CCCN1CCC(O)(Cc2ccc(OC(F)(F)F)cc2)CC1)c1ccc(O)cc1 [Compound 10]	4.70	not competitive with MK-801	7.80	
Cc1ccccc1CC1=CCN(CCCC(=O)c2ccc(O)cc2)CC1 [Compound 18]	5.52	not competitive with MK-801	8.40	ED50 ([3]; acute pain within 5 minutes, read-out: ED50, the first phase): 1.1 mg/kg; ED50 ([3]; inflammatory pain 10 to 30 minutes, read-out: ED50, the second phase): 0.7 mg/kg; analgesic effect (in words) ([3]; mouse, in vivo): confirmed; antagonistic effect on NR1/NR2 subfamilies (in words) [4]: specific antagonistic effect on the NR1/NR2B receptor; pIC50 ([4]; NMDA 100 μM and glycine 10 μM, -60 mV, Xenopus oocytes): 5.34; pIC50 [5]: < 4.52; pIC50 [6]: < 4.52; pIC50 [7]: < 4.52
O=C(CCCN1CC=C(Cc2ccc(F)cc2)CC1)c1ccc(O)cc1 [Compound 19]	5.00	not competitive with MK-801	8.70	
O=C(CCCN1CC=C(c2ccc(Cl)cc2)CC1)c1ccc(O)cc1 [Compound 32]			8.52	
